The values that follow come from patent US10308615B2, “Heterocyclic compounds as inhibitors of Vanin-1 enzyme” (Pfizer Inc., priority 2015, dated 2019).

Molecules are shown by their SMILES.

In one assay the test system is DSS-induced colitis. The experiment in a line: DSS (Dextran Sodium Sulfate)-induced colitis mouse model of IBD. The format is in vivo, mice. How it is done:
Induced Colitis Mouse Model Methods
Example 1 along with sulfasalazine was evaluated in DSS (Dextran Sodium Sulfate) —induced colitis mouse model of IBD. Experimental colitis was induced in healthy young female BALB/C mice by providing 4% DSS; molecular weight 36,000-50,000 (wt/vol) in drinking water ad-libitium for seven days followed by water alone for another seven days. At the commencement of the study, mice were between 7-8 weeks of age, weighing 18-20 g. All the mice were obtained from The Jackson Laboratory, Bar Harbor, Me. 04609 USA. The test articles Example 1 and vehicle were administered subcutaneously (sc) once a day beginning day −1 and continued till day 14. The positive control, Sulfasalazine was dosed orally (po) once a day beginning day 5 and continued till day 14 (Table 2). The body weights were recorded prior to dosing and daily thereafter for fourteen days. Clinical assessments of the mice were performed every other day beginning day 5. The clinical assessment includes body weight, stool consistency and the presence of blood in the stools and scored accordingly to the Table-3. At the end of the study mice were sacrificed using CO2 asphyxiation and colon from the colocecal junction to the anus was removed, washed and cleaned of all fecal matter using PBS, measured and weighed. The data are presented as the mean±standard error (SEM). Data were analyzed using two-way ANOVA using Bonferroni post-test. groups were considered significant at p<0.05.

Assay [1] concerns the target T1, human vanin-1 (Homo sapiens (Human), UniProt O95497). The experiment in a line: Human Vanin-1 Enzyme Assay 1. The format is biochemical. The settings on record: 25 pM human vanin-1, 50 uM pantetheine 7-amino-4-trifluoromethylcoumarin, 30 min preincubation, 60 min. In short, it runs like this:
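Purified His6/FLAG-tagged extracellular domain of human vanin-1, secreted from CHO cells, at 25 pM final in 50 mM Tris-HCl pH 8.0, 50 mM KCl, 0.005% Brij-35, 1.6 mM cysteamine, 0.5% DMSO. Inhibitor preincubated 30 min at room temperature; 50 uM pantetheine-AFC substrate, 60 min, fluorescence at 405/510 nm; 11-point four-fold dilution series.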

The target in assay [2] is T1, human vanin-1. In words: Human Vanin-1 Enzyme Assay 2. As to conditions: 1 nM human vanin-1, 10 uM substrate, 45 min. The format is biochemical. The method in brief: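 Purified CHO-expressed His/FLAG-tagged human vanin-1 extracellular domain (1 nM) cleaved pantetheine-AMC-CF3 substrate (10 uM) in pH 8.0 Tris buffer with 1.5 mM cysteamine and 1% DMSO. Fluorescence (ex 405/em 505 nm) was read after 45 min, over an 11-point half-log inhibitor series.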

In assay [3] the target is T1, human vanin-1. In words: Human Vanin-1 Enzyme Assay 3. Type of assay: biochemical. The settings on record: 2 nM human vanin-1, 10 uM substrate, 15 min. The method in brief:
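His/FLAG-tagged extracellular domain of human vanin-1 from CHO cells, used at 2 nM final, with 10 uM pantetheine-AFC substrate. Buffer: 50 mM Tris-HCl pH 8.0, 50 mM KCl, 0.005% Brij-35, 1.5 mM cysteamine, 1% DMSO. 15 min at room temperature; fluorescence read at 405/505 nm across an 11-point 2-fold dilution series.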

[4] abbreviates: 50 mg/kg sc QD days -1-14, 4% DSS, female BALB/C mice.

T1 sequence (O95497 22-491): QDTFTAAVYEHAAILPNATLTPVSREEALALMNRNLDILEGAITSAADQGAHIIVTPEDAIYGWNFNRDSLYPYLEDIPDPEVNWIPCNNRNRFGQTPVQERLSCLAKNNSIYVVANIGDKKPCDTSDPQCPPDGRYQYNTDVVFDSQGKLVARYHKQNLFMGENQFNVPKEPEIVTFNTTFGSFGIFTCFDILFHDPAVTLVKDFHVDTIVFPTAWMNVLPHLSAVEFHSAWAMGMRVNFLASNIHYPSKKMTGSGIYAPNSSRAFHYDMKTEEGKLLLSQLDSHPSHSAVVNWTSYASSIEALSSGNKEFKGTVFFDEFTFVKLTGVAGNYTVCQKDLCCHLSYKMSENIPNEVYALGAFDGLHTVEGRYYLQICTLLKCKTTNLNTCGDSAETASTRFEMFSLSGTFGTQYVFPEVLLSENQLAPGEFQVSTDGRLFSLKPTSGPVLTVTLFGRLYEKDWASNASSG

With `O=C(O)c1cc(/N=N/c2ccc(S(=O)(=O)Nc3ccccn3)cc2)ccc1O` [Sulfasalazine, reference compound], the “improvement in the colitis (FIG. 1-3)” value in the assay on DSS-induced colitis (100 mg/kg po QD days 5-14, positive control) was “improvement in the colitis”.

Regarding `N#Cc1cccc(C(=O)c2cnc(NC3(c4cncnc4)CC3)nc2)c1` [Example 1, 3-[(2-{[1-(pyrimidin-5-yl)cyclopropyl]amino}pyrimidin-5-yl)carbonyl]benzonitrile], on human vanin-1 [1], the IC50 (as a rule, the point on the concentration scale where inhibition reaches its midpoint) worked out at 0.0041 µM. The IC50 on human vanin-1 [2] came out at 0.007 µM. Further, in the assay on DSS-induced colitis (setting [4]), the “Disease Activity Index (DAI)” value is on record as “mark improvement”, the colon length result was “mark improvement” and the “loss of body weight” value was “mark improvement”.

Turning to `Cc1cccc(C(=O)c2cnc(NCc3ccc(C(N)=O)cc3)nc2)c1` [Example 23, 4-({[5-(3-methylbenzoyl)pyrimidin-2-yl]amino}methyl) benzamide], the results for the IC50 against human vanin-1 [1], at human vanin-1 [2] and at human vanin-1 [3] were 0.178 µM, 0.0987 µM and 0.16 µM, respectively.

As to `Cc1cccc(C(=O)c2cnc(NCc3ccccn3)nc2)c1` [Example 38, (3-methylphenyl){2-[(pyridin-2-ylmethyl)amino]pyrimidin-5-yl}methanone], the IC50 against human vanin-1 [1] is 0.857 µM; on human vanin-1 [2] it was 0.868 µM; against human vanin-1 [3], 0.735 µM.

Consider `O=C(c1ccccc1)c1cnc(NC2(c3ccccc3)CC2)nc1` [Example 111, phenyl{2-[(1-phenylcyclopropyl)amino]pyrimidin-5-yl}methanone], for which the IC50 is 0.367 µM on human vanin-1 [1], 0.202 µM on human vanin-1 [2] and 0.182 µM against human vanin-1 [3].
